In US10894787B2, “Modulators of the GPR119 receptor and the treatment of disorders related thereto” (Arena Pharmaceuticals, Inc., priority 2010, dated 2021):
Read-outs that look alike come from different tables or passages of the source.

Key:
[1] = biological target: T1, GPR119 receptor (Homo sapiens, UniProt Q8TDV5); test: HTRF assay for direct cAMP measurement in CHO-K1 cells stably expressing the GPR119 receptor; assay type: cell-based; conditions: for EC50: CHO-K1 cells stably expressing GPR119; for Pharmacological activity of metabolites (HTRF assay): metabolites of Compound 1
T1 construct: expressed in transfected cells
T1 sequence (Q8TDV5 2-335 limits assumed): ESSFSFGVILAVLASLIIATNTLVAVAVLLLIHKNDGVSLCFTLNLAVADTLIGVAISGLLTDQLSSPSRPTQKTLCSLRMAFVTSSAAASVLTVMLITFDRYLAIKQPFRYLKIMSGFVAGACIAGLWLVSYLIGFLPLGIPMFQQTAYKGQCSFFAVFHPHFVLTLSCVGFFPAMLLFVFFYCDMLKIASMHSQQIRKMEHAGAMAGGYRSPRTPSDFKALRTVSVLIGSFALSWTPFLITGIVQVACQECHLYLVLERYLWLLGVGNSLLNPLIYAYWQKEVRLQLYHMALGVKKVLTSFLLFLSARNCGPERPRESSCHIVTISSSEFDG
Protocol: The GPR119 agonist, Compound 1, was evaluated in an HTRF® cAMP detection assay according to the manufacturer's instructions (Cisbio, cAMP Dynamic 2 Assay Kit; #62AM4PEJ) using CHO-K1 cells stably expressing the GPR119 receptor. Briefly, CHO-K1 cells were transduced with a lentiviral vector encoding the nucleotide sequence of GPR119 (NCBI mRNA and protein reference sequences: NM_178471.2 & NP_848566, (GPR119 has also been referred to as Glucose-Dependent Insulinotropic Receptor (GDIR)). The N-terminus of the GPR119 nucleotide sequence was modified to replace the first, methionine-coding codon with a nucleotide sequence coding for a standard, nine amino acid, hemagglutinin tag. Following transduction, cells expressing the GPR119 receptor were isolated and a single clone was isolated following standard dilution-cloning procedures. On the day of the assay, cultured CHO-GPR119 cells were harvested, suspended in assay buffer and plated into 384-well assay plates (PerkinElmer Proxiplate #6008280) at a density of 2,000 cells per well. A cAMP standard curve was included on each plate. Test compounds were solubilized in DMSO, serially diluted in DMSO and then diluted in assay buffer before adding to the cells. Test compounds were evaluated in triplicate, using 10-point, 5-fold serial dilutions starting at 10 μM. The final DMSO concentration in the assay was 0.5%. Compounds and cells were incubated for 1 h at room temperature and then detection reagents were added to each well (cAMP-D2 in cell lysis buffer, followed by europium cryptate-labeled anti-cAMP antibody). Plates were then incubated at room temperature for 1 h prior to reading. Time-resolved fluorescence measurements were collected on PerkinElmer Envision™ or BMG Pherastar™ microplate readers. The compound N-(2-fluoro-4-(methylsulfonyl)phenyl)-6-(4-(3-isopropyl-1,2,4-oxadiazol-5-yl)piperidin-1-yl)-5-nitropyrimidin-4-amine was used as a positive control in each runset while assay buffer containing 0.5% DMSO was used as the negative control.

[2] = tested on: liver microsomes; test: In vitro metabolism of Compound 1 in liver microsomes from various species; assay type: in vitro ADME, mouse, rat, dog, monkey and human; conditions: Compound 1 incubated with 0.25 mg/mL microsomal protein, pH 7.4; relative to M2 and M3
Protocol: (§1) Compound 1 was incubated with mouse, rat, dog, monkey and human liver microsomal protein (0.25 mg/mL final concentration) in 100 mM potassium phosphate buffer containing 3 mM MgCl2 and 1 mM EDTA (pH 7.4) for over a period of time in the presence or absence of (3-NADPH. The samples were then processed and the supernatant was analyzed by LC-MS/MS for the identification and quantification of the metabolites.

[3] = tested on: dog liver microsomes; test: In vitro metabolism of Compound 1 in dog liver microsomes; assay type: in vitro ADME; conditions: Compound 1 incubated with 0.25 mg/mL microsomal protein, pH 7.4
Protocol: as §1

[4] = In vivo metabolism of Compound 1: metabolites in dog plasma samples (LC/MS/MS); conditions: dog plasma after dosing Compound 1; under the analytical conditions used
Protocol: (§2) Metabolites of Compound 1 were identified in plasma samples collected from different pharmacokinetic studies in various species.
(§3) Four species, mouse, rat, dog and monkey were dosed with Compound 1, and plasma samples were collected at predetermined time points from each of the species according to specific study protocols. The samples were then processed and subjected to the LC/MS/MS analysis for the identification and quantification of the metabolites. Three metabolites, designated M1 (Compound 2), M2 (Compound 3), and M3 were identified in plasma samples from various species. The M1 metabolite was identified as a mono-N-demethylation of Compound 1, and the M2 metabolite was a di-N-demethylation product of Compound 1. The third metabolite M3 (i.e., 3-fluoro-4-(5-fluoro-6-(4-(3-(2-fluoropropan-2-yl)-1,2,4-oxadiazol-5-yl)piperidin-1-yl)pyrimidin-4-ylamino)benzoic acid, see below) was determined as a carboxylic acid of Compound 1.

[5] = combined administration with a DPP-IV inhibitor, cited from earlier work
[6] = In vivo metabolism of Compound 1: metabolites in plasma samples from various species (LC/MS/MS); design: species or system mouse, rat, dog and monkey; conditions: all species, after dosing Compound 1
Protocol: as §2, §3

[7] = human studies; infusion; over 24 hours; cited from earlier work
[8] = 1 h incubation at room temperature, read-out: EC50, HTRF cAMP assay

For `CNC(=O)c1ccc(Nc2ncnc(N3CCC(c4nc(C(C)(C)F)no4)CC3)c2F)c(F)c1` [Compound 2, 3-fluoro-4-(5-fluoro-6-(4-(3-(2-fluoropropan-2-yl)-1,2,4-oxadiazol-5-yl)piperidin-1-yl)pyrimidin-4-ylamino)-N-methylbenzamide], the EC50 [1, 8] was 27 nM, the “Pharmacological activity of metabolites (HTRF assay)” value (from here on “Pharmacological activity”) [1] was “pharmacologically active” and the “Rate of formation of metabolite in liver microsomal incubation” value [2] was “highest”.

With `CC(C)(F)c1noc(C2CCN(c3ncnc(Nc4ccc(C(N)=O)cc4F)c3F)CC2)n1` [Compound 3, 3-fluoro-4-(5-fluoro-6-(4-(3-(2-fluoropropan-2-yl)-1,2,4-oxadiazol-5-yl)piperidin-1-yl)pyrimidin-4-ylamino)benzamide] the EC50 [1, 8] was 28.2 nM, the “Pharmacological activity” value [1] was “pharmacologically active” and the “Formation of metabolite in dog liver microsomes” value [3] was “negligible”. The “Metabolite observed in dog plasma samples” value [4] was “not observed”.

In the case of `CC(C)c1noc(C2CCN(c3ncnc(Nc4ccc(S(C)(=O)=O)cc4F)c3[N+](=O)[O-])CC2)n1` [Compound B111, (2-Fluoro-4-methanesulfonyl-phenyl)-{6-[4-(3-isopropyl-[1,2,4]oxadiazol-5-yl)-piperidin-1-yl]-5-nitro-pyrimidin-4-yl}-amine], the “Plasma GLP-1 levels” value ([5]; greater than either agent alone) is listed as “acutely increased plasma GLP-1 levels” and the Glucose tolerance ([5]; significantly greater degree than either agent alone) is listed as “improved glucose tolerance”.

For `CC(C)(F)c1noc(C2CCN(c3ncnc(Nc4ccc(C(=O)O)cc4F)c3F)CC2)n1` [Compound M3, 3-fluoro-4-(5-fluoro-6-(4-(3-(2-fluoropropan-2-yl)-1,2,4-oxadiazol-5-yl)piperidin-1-yl)pyrimidin-4-ylamino)benzoic acid], the EC50 ([1]; read-out: EC50, HTRF assay) was 100000 nM, the “Pharmacological activity” value [1] was “substantially little activity” and the Circulating metabolite status [6] was “major circulating metabolite”.

For “PYY3-36: generated from PYY1-36 by cleavage of the N-terminal Tyr and Pro residues by DPP-IV; Y2R agonist”, the “Reduction of food intake” value [7] is given as 33%.
